Data: patent US20090069302A1 (SMITHKLINE BEECHAM CORPORATION, priority 2006, published 2009)
One block for each compound: values may come before it.

Legend:
[1] = system: GK rats; test: Effect on glucose, insulin and GLP-1 secretion in GK rats after oral glucose; assay type: in vivo, rat; parameters: Glucose changes / Insulin changes / GLP-1 changes: unit not given here; conditions: for GLP-1 changes: active GLP-1, DPPIV inhibitor pretreated; for GLP-1 changes / Insulin changes / Glucose changes: 5 mg/kg intracolonic at −30 min, glucose 1 g/kg oral at 0 min; for Insulin changes: plasma; for Insulin changes / Glucose changes: DPPIV inhibitor pretreated; for Glucose changes: whole blood
Experimental: Eight week old conscious GK rats (four per group) were pretreated with a DPPIV inhibitor immediately after control blood sampling at −40 min (black arrow), and dosed with vehicle (0.5% HPMC/0.1% Tween80) or 5 mg/kg Example 14 through intracolonic injection at −30 time point (blue arrow). Glucose (1 g/kg) was given orally at 0 min. Blood samples were collected at −40, 0, 5, 15, 30, 60, 90 and 120 minutes after dosing. Whole blood glucose, plasma insulin, and active GLP-1 were measured (ELISA kits, LINCO). […] The results are listed in Tables 3a, 3b, and 3c, and graphically represented in FIGS. 2a, 2b, and 2c, respectively.

[2] = biological target: T1, AXOR109 (Homo sapiens, UniProt Q8TDU6); test: Human AXOR109/Melanophore Assay; assay type: cell-based; conditions: melanophore assay; for Emax: 1 h, normalized to alpha-MSH system max; for EC50: AXOR109 transfected melanophores
T1 construct: expressed in transfected cells; host or cells: melanophore cells, transfected by electroporation
T1 sequence (Q8TDU6 1-330): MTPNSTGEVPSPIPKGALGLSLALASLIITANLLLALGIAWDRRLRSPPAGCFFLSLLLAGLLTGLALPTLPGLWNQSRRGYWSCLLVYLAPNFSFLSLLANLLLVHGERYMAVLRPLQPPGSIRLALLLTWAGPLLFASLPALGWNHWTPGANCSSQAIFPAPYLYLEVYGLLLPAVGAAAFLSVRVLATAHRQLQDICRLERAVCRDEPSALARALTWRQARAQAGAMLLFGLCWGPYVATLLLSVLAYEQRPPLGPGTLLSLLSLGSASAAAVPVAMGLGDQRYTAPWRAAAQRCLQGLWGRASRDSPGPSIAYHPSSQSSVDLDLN
Method in brief: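 Readout is melanosome dispersion in melanophores electroporated with human AXOR109, in buffer containing 10 nM melatonin and 1% DMSO. Transmittance was read before and after 1 h compound exposure across 11-point 3-fold dilutions. Response was normalized to 200 nM alpha-MSH as system max, and pEC50 was obtained from a Hill fit.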

Emax [2]: 51 to 75%
EC50 [2]: < 0.126 µM
Compound: COc1ccc(S(=O)(=O)N(C)CCN(C)S(=O)(=O)c2ccc(OC)c(OC)c2)cc1OC [Example 14, N,N′-1,2-ethanediylbis[N-methyl-3,4-bis(methyloxy)benzenesulfonamide]]
active GLP-1 and insulin level compared to controls ([1]; 5 mg/kg intracolonic, in words): higher level of active GLP-1 and insulin
glucose disposal compared to controls ([1]; 5 mg/kg intracolonic, in words): improved glucose disposals
GLP-1 changes ([1]; 0 min): 15.08
GLP-1 changes ([1]; 15 min): 23.63
GLP-1 changes ([1]; 30 min): 19.58
GLP-1 changes ([1]; 60 min): 23.63
GLP-1 changes ([1]; 90 min): 23.63
GLP-1 changes ([1]; 120 min): 21.15
GLP-1 changes ([1]; −40 min (before dosing)): 12.65
Insulin changes ([1]; 0 min): 68.06
Insulin changes ([1]; 15 min): 366.79
Insulin changes ([1]; 30 min): 289.23
Insulin changes ([1]; 60 min): 152.33
Insulin changes ([1]; 90 min): 146.47
Insulin changes ([1]; 120 min): 158.31
Insulin changes ([1]; −40 min (before dosing)): 85.82
Glucose changes ([1]; 0 min): 74.25
Glucose changes ([1]; 15 min): 173.75
Glucose changes ([1]; 30 min): 174.75
Glucose changes ([1]; 60 min): 122.50
Glucose changes ([1]; 90 min): 110.00
Glucose changes ([1]; 120 min): 114.50
Glucose changes ([1]; −40 min (before dosing)): 106.75

Emax [2]: 76 to 100%
EC50 [2]: 0.126 to 1 µM
Compound: COc1ccc(S(=O)(=O)N(C)CCN(C2CC2)S(=O)(=O)c2ccc(OC)c(OC)c2)cc1OC [Example 88]

Emax [2]: 76 to 100%
EC50 [2]: 0.126 to 1 µM
Compound: COc1ccc(S(=O)(=O)N(CCN(C2CC2)S(=O)(=O)c2ccc(OC)c(OC)c2)C(C)C)cc1OC [Example 89]

Emax [2]: 51 to 75%
EC50 [2]: 0.126 to 1 µM
Compound: CCN(CCN(C1CC1)S(=O)(=O)c1ccc(OC)c(OC)c1)S(=O)(=O)c1ccc(OC)c(OC)c1 [Example 90]

Emax [2]: 76 to 100%
EC50 [2]: 0.126 to 1 µM
Compound: COc1ccc(S(=O)(=O)N2CCN(S(=O)(=O)c3ccc(OC)c(OC(F)(F)F)c3)CC2)cc1OC [Example 91]

Emax [2]: 51 to 75%
EC50 [2]: 1.26 to 10 µM
Compound: COc1ccc(S(=O)(=O)N2CCCCC(N(C)S(=O)(=O)c3ccc(OC)c(OC)c3)C2)cc1OC (stereo not drawn) [Example 92]

Emax [2]: 51 to 75%
EC50 [2]: 1.26 to 10 µM
Compound: CCN(C1CCCN(S(=O)(=O)c2ccc(OC)c(OC)c2)C1)S(=O)(=O)c1ccc(OC)c(OC)c1 (stereo not drawn) [Example 93, N-(1-{[3,4-bis(methyloxy)phenyl]sulfonyl}-3-piperidinyl)-N-ethyl-3,4-bis(methyloxy)benzenesulfonamide]

Emax [2]: 76 to 100%
EC50 [2]: 1.26 to 10 µM
Compound: COc1ccc(S(=O)(=O)N(C)C[C@@H]2CCCN2S(=O)(=O)c2ccc(OC)c(OC)c2)cc1OC [Example 94, N-[((2S)-1-{[3,4-bis(methyloxy)phenyl]sulfonyl}-2-pyrrolidinyl)methyl]-N-methyl-3,4-bis(methyloxy)benzenesulfonamide]

Emax [2]: 76 to 100%
EC50 [2]: 0.126 to 1 µM
Compound: CCN(C[C@@H]1CCCN1S(=O)(=O)c1ccc(OC)c(OC)c1)S(=O)(=O)c1ccc(OC)c(OC)c1 [Example 95, N-[((2S)-1-{[3,4-bis(methyloxy)phenyl]sulfonyl}-2-pyrrolidinyl)methyl]-N-ethyl-3,4-bis(methyloxy)benzenesulfonamide]

Emax [2]: 76 to 100%
EC50 [2]: 0.126 to 1 µM
Compound: CCCN(C[C@@H]1CCCN1S(=O)(=O)c1ccc(OC)c(OC)c1)S(=O)(=O)c1ccc(OC)c(OC)c1 [Example 96, N-[((2S)-1-{[3,4-bis(methyloxy)phenyl]sulfonyl}-2-pyrrolidinyl)methyl]-3,4-bis(methyloxy)-N-propylbenzenesulfonamide]

Emax [2]: 76 to 100%
EC50 [2]: < 0.126 µM
Compound: COc1ccc(S(=O)(=O)N(C)C[C@H]2CCCN2S(=O)(=O)c2ccc(OC)c(OC)c2)cc1OC [Example 97, N-[((2R)-1-{[3,4-bis(methyloxy)phenyl]sulfonyl}-2-pyrrolidinyl)methyl]-N-methyl-3,4-bis(methyloxy)benzenesulfonamide]

Emax [2]: 76 to 100%
EC50 [2]: < 0.126 µM
Compound: CCN(C[C@H]1CCCN1S(=O)(=O)c1ccc(OC)c(OC)c1)S(=O)(=O)c1ccc(OC)c(OC)c1 [Example 98, N-[((2R)-1-{[3,4-bis(methyloxy)phenyl]sulfonyl}-2-pyrrolidinyl)methyl]-N-ethyl-3,4-bis(methyloxy)benzenesulfonamide]

Emax [2]: 76 to 100%
EC50 [2]: < 0.126 µM
Compound: CCCN(C[C@H]1CCCN1S(=O)(=O)c1ccc(OC)c(OC)c1)S(=O)(=O)c1ccc(OC)c(OC)c1 [Example 99, N-[((2R)-1-{[3,4-bis(methyloxy)phenyl]sulfonyl}-2-pyrrolidinyl)methyl]-3,4-bis(methyloxy)-N-propylbenzenesulfonamide]

Emax [2]: > 100%
EC50 [2]: 0.126 to 1 µM
Compound: COc1ccc(S(=O)(=O)N(C[C@H]2CCCN2S(=O)(=O)c2ccc(OC)c(OC)c2)C(C)C)cc1OC [Example 100, N-[((2R)-1-{[3,4-bis(methyloxy)phenyl]sulfonyl}-2-pyrrolidinyl)methyl]-N-(1-methylethyl)-3,4-bis(methyloxy)benzenesulfonamide]
